Experimental findings from ChEMBL document CHEMBL2177023, “Effects of antimalarial molecules on the gametocyte stage of Plasmodium falciparum: the debate” (J Med Chem, 2012) are described below.

For data set [1], the system named is Plasmodium falciparum. The data set is described as follows: Antimalarial activity against Plasmodium falciparum gametocytes by GFP-luciferase reporter gene assay. In kind it is functional, organism-based. On the technique in general: Reporter assays use an easily measured gene product as a stand-in for the process of interest.
In data set [2] the test system is Plasma. Briefly: (§1) Half life in human plasma. In kind it is ADME, cell-free.
Data set [3] concerns Plasmodium falciparum. The data set is described as follows: Antimalarial activity against Plasmodium falciparum KT3 gametocytes. In kind it is functional, organism-based.
Data set [4] has as its system Plasmodium falciparum. The data set is described as follows: Antimalarial activity against Plasmodium falciparum KT1 gametocytes. In kind it is functional, organism-based.
Data set [5] has as its system Plasmodium falciparum. The data set is described as follows: Antimalarial activity against transgenic Plasmodium falciparum 3D7 GFP16B gametocytes. In kind it is functional, organism-based.
The test system of data set [6] is Plasmodium falciparum. The data set is described as follows: Antimalarial activity against Plasmodium falciparum gametocytes. In kind it is functional, organism-based.
A short description of data set [7]: as §1. In kind it is ADME, cell-free.
The test system of data set [8] is Plasmodium falciparum. Briefly: Antimalarial activity against Plasmodium falciparum stage 3 to 5 gametocytes. In kind it is functional, organism-based.
Data set [9] relates to Plasmodium berghei. The data set is described as follows: Antimalarial activity against Plasmodium berghei infected in mosquitoes assessed as reduction in number of oocysts. In kind it is functional. Set-up: scale not given: the % may be the effect or the level left.
The subject of data set [10] is Plasmodium berghei. Briefly: Antimalarial activity against Plasmodium berghei infected in mosquitoes assessed as reduction in number of sporozoites. In kind it is functional. Set-up: scale not given: the % may be the effect or the level left.
The subject of data set [11] is Plasmodium chabaudi. The data set is described as follows: Antimalarial activity against Plasmodium chabaudi infected rat malaria model. In kind it is functional.

The structures appear in SMILES notation. pIC50: −log10 of the molar value. Bounds are passed on as bounds.

Turning to `CN(C)c1ccc2nc3ccc(=[N+](C)C)cc-3sc2c1` [METHYLENE BLUE CATION], the pIC50 (usually the IC50 on a negative log10 scale, so that one unit is a factor of ten) in data set [1] is 7.92.
`COc1cc(NC(C)CCCN)c2ncccc2c1` (stereo unspecified) [PRIMAQUINE] yielded a t1/2 in [2] of 0.03 weeks. Also, the figures for the pIC50 in [3] and in data set [4] were 5.68 and 6.10, respectively.
For `CN(C)Cc1ccc(Nc2c3ccccc3nc3ccccc23)cc1`, the negative logarithm of the IC50 (pIC50) in [3] and in data set [4] was 6.22 each time.
As to `COc1ccc2nc3cc(Cl)ccc3c(Nc3cc(CN4CCCC4)c(O)c(CN4CCCC4)c3)c2n1` [PYRONARIDINE], the negative-log IC50 (pIC50) in [3] was 7.70; in data set [4] it was 8.22; in data set [5] it was 7.64.
Compound `COc1cc(N[C@H](C)CCCN)c2nccc(C)c2c1Oc1ccc(Cl)c(Cl)c1` gave a negative-log IC50 (pIC50) in data set [6] of 5.42.
Regarding `COc1cc(C)c2c(Oc3cccc(C(F)(F)F)c3)c(OC)cc(NC(C)CCCN)c2n1` (stereo unspecified) [TAFENOQUINE], in data set [7], the half-life – broadly, how long it takes for the measured level to halve – is 14 days.
On to `CC[C@H](C)[C@H](NC(=O)[C@H]([C@@H](C)CC)N(C)C(C)=O)C(=O)N[C@H](C(=O)N[C@@H](CC(C)C)C(=O)[C@@]1(C)CO1)[C@@H](C)O` [EPOXOMYCIN], for which, in data set [8], the pIC50 is 8.70.
The compound `C=C(NC(=O)C(=C)NC(=O)c1csc(C2=N[C@@H]3c4csc(n4)[C@H]4NC(=O)c5csc(n5)[C@H]([C@](C)(O)[C@@H](C)O)NC(=O)[C@H]5CSC(=N5)/C(=C/C)NC(=O)[C@H]([C@@H](C)O)NC(=O)c5csc(n5)[C@]3(CC2)NC(=O)[C@H](C)NC(=O)C(=C)NC(=O)[C@H](C)NC(=O)[C@H]([C@@H](C)CC)N[C@@H]2C=Cc3c([C@H](C)O)cc(nc3[C@H]2O)C(=O)O[C@@H]4C)n1)C(N)=O` [THIOSTREPTON] had a negative-log IC50 (pIC50) in data set [6] of over 5.00.
`COc1cc2cc(C(=O)Nc3cc(N)c4ccccc4c3CCCl)[nH]c2c(OC)c1OC` [CENTANAMYCIN]: the Activity in [9] turned out to be 83%; in data set [10] it was 99%. It took a dose of 1.5 mg/kg to reach the 50% effect level in data set [11] (ED50).
